Measured values taken from patent US5567692A, “9-[(substituted glycyl) amido)]-6-demethyl-6-deoxytetracyclines” (priority 1995, dated 1996).
Counter-ions that a name gives are not always drawn.

Columns and labels:
Type in all cases: cell-based
E. coli UBMS 88-1 Tet B = assay: microbe, parasite or virus in culture; conditions: E. coli UBMS 88-1 Tet B
[1] = tested on: E. coli MC 4100 TNIOC Tet B; assay: microbe, parasite or virus in culture; conditions: E. coli MC 4100 TNIOC Tet B
E. coli J3272 Tet C = assay: microbe, parasite or virus in culture; conditions: dihydrochloride
[2] = tested on: E. coli UBMS 89-2 Tet sens.; assay: MIC, agar dilution; conditions: E. coli UBMS 89-2 Tet sens.
S. marcescens FPOR 8733 = assay: MIC, agar dilution; conditions: dihydrochloride
S. aureus NEMC 8769 = assay: MIC, agar dilution
[3] = tested on: S. aureus UBMS 88-7 Tet K; assay: microbe, parasite or virus in culture; conditions: dihydrochloride
[4] = tested on: S. aureus UBMS 90-2 Tet M; assay: microbe, parasite or virus in culture; conditions: S. aureus UBMS 90-2 Tet M; dihydrochloride
S. aureus ROSE (MP) = assay: MIC, agar dilution; conditions: Staphylococcus aureus, 18 h, read-out: MIC
S. aureus SMITH (MP) = assay: MIC, agar dilution; conditions: Staphylococcus aureus, 18 h; S. aureus SMITH (MP); read-out: MIC
[5] = tested on: Staphylococcus aureus, (methicillin-susceptible); assay: MIC range, recent clinical and veterinary isolates; conditions: Staphylococcus aureus, 18 h, read-out: MIC Range
[6] = tested on: Staphylococcus Coagulase-negative, (methicillin-resistant); assay: MIC range, recent clinical and veterinary isolates; conditions: 18 h, [16] isolates
Enterococcus faecalis = assay: MIC range, recent clinical and veterinary isolates; conditions: 18 h, read-out: MIC Range
Streptococcus pneumoniae = assay: MIC range, recent clinical and veterinary isolates; conditions: 18 h, [10] isolates, read-out: MIC Range
[7] = tested on: Escherichia coli (Veterinary); assay: MIC range, recent clinical and veterinary isolates; conditions: 18 h, [15] isolates
Enterobacter cloacae = assay: MIC range, recent clinical and veterinary isolates; conditions: 18 h, [10] isolates, read-out: MIC Range
Enterobacter aerogenes = assay: MIC range, recent clinical and veterinary isolates; conditions: Klebsiella aerogenes, 18 h; Enterobacter aerogenes, [10] isolates; read-out: MIC Range
Providencia spp. = assay: MIC range, recent clinical and veterinary isolates; conditions: 18 h, read-out: MIC Range
Pseudomonas aeruginosa = assay: MIC range, recent clinical and veterinary isolates; conditions: 18 h, [10] isolates, read-out: MIC Range
Xanthamonas maltophilia = assay: MIC range, recent clinical and veterinary isolates; conditions: 18 h, read-out: MIC Range
[8] = tested on: Bordetella bronchiseptica (Veterinary); assay: MIC range, recent clinical and veterinary isolates; conditions: 18 h; Bordetella bronchiseptica (Veterinary), [10] isolates; read-out: MIC Range
Bacteroides spp. = assay: MIC range, recent clinical and veterinary isolates; conditions: Bacteroides, 18 h, read-out: MIC Range
Clostridium spp. = assay: MIC range, recent clinical and veterinary isolates; conditions: 18 h, [9] isolates
Anaerobic Gram(+)Cocci = assay: MIC range, recent clinical and veterinary isolates; conditions: 18 h; Anaerobic Gram(+)Cocci, [15] isolates; read-out: MIC Range
[9] = tested on: tetracycline sensitive and resistant Gram-positive and Gram-negative bacteria; assay: In vitro antibacterial evaluation, summary in words; conditions: summary of Tables I, II and V, dihydrochloride

For `CN(C)CC(=O)Nc1ccc2c(c1O)C(=O)C1=C(O)[C@]3(O)C(=O)C(C(N)=O)=C(O)[C@@H](N(C)C)C3CC1C2` (stereo partly drawn) [CC, [4S-(4alpha,12aalpha)]-4-(Dimethylamino)-9-[[(dimethylamino)acetyl]amino]-1,4,4a,5,5a,6,11,12a-octahydro-3,10,12,12a-tetrahydroxy-1,11-dioxo-2-naphthacenecarboxamide dihydrochloride], the MIC (E. coli UBMS 88-1 Tet B) was 0.25 µg/mL, the MIC [1] was 0.25 µg/mL and the MIC (E. coli J3272 Tet C) was 0.25 µg/mL. For the same compound, the MIC [2] was 0.25 µg/mL, the MIC (S. marcescens FPOR 8733) was 2 µg/mL and the MIC (S. aureus NEMC 8769) was less than 0.015 µg/mL. It also gave an MIC [3] of 0.5 µg/mL, an MIC [4] of 0.06 µg/mL and an MIC (S. aureus ROSE (MP)) of 1 µg/mL. It also gave an MIC (S. aureus SMITH (MP)) of 0.03 µg/mL, an MIC [5] of 0.06 to 0.25 µg/mL and an MIC [6] of 0.06 to 16 µg/mL. For the same compound, the MIC (Enterococcus faecalis) was 0.03 to 0.25 µg/mL, the MIC (Streptococcus pneumoniae) was 0.03 to 0.5 µg/mL and the MIC [7] was 0.25 to 4 µg/mL. It also gave an MIC (Enterobacter cloacae) of 0.5 to 1 µg/mL, an MIC (Enterobacter aerogenes) of 0.25 to 1 µg/mL and an MIC (Providencia spp.) of 1 to 8 µg/mL. The MIC (Pseudomonas aeruginosa) was 2 to 16 µg/mL, the MIC (Xanthamonas maltophilia) was 1 to 8 µg/mL and the MIC [8] was 0.06 to 0.12 µg/mL. For the same compound, the MIC (Bacteroides spp.) was 0.12 to 0.5 µg/mL, the MIC (Clostridium spp.) was 0.03 to 0.12 µg/mL and the MIC (Anaerobic Gram(+)Cocci) was 0.015 to 0.12 µg/mL. For the same compound, the “in vitro antibacterial activity (in words)” value [9] was “excellent in vitro activity” and the “in vitro antibacterial activity (in words)” value ([9]; listed as 9-[(N,N-dimethylglycyl)amido)]-6-demethyl-6-deoxytetracycline) was “potent in vitro antibacterial activity”.
